Results on 2 compounds are retold here after patent US11021521B2, “Pore-modified gram-negative bacteria and uses thereof” (priority 2015, dated 2021).

Values after ≈ are worked out from the molar mass of the structure shown. Values joined by “and” are separate entries in the source; they are usually repeats but may differ in a detail not shown here. Identical values can stand only once.

For data set [1], the system named is B. thailandensis cells (Bt-RHA and derivatives).
Data set [2] has as its system A. baumannii cells (Ab-ARA and derivatives). Nature of the data set: Fluorescent probe uptake assay, A. baumannii strains. Conditions: AbΔ3-ARA vs Ab-ARA, fluorescence.
Data set [3] has as its system P. aeruginosa cells (PAO1-LAC and derivatives). The data set is described as follows: Fluorescent probe uptake assay, P. aeruginosa strains.
The subject of data set [4] is P. aeruginosa PAO1-LAC (wild type, empty cassette). Nature of the data set: microbe, parasite or virus in culture. Format: cell-based. Particulars: at least three independent measurements.
For data set [5], the system named is P. aeruginosa PAO1-LAC-EcPore (hyperporinated). Nature of the data set: microbe, parasite or virus in culture. Format: cell-based.
Data set [6] deals with P. aeruginosa PaΔ3-LAC (efflux-deficient). The data set is described as follows: microbe, parasite or virus in culture. Format: cell-based. Conditions: at least three independent measurements.
The test system of data set [7] is P. aeruginosa PaΔ3-LAC-EcPore (efflux-deficient, hyperporinated). Nature of the data set: microbe, parasite or virus in culture. Format: cell-based.
The subject of data set [8] is B. thailandensis Bt-RHA (wild type, empty cassette). Nature of the data set: microbe, parasite or virus in culture. The data set is classed as cell-based.
Data set [9] relates to B. thailandensis Bt-RHA-BtPore (hyperporinated). Nature of the data set: microbe, parasite or virus in culture. Format: cell-based.
The subject of data set [10] is B. thailandensis BtΔ2-RHA (efflux-deficient). The data set is described as follows: microbe, parasite or virus in culture. The data set is classed as cell-based.
Data set [11] relates to B. cepacia Bc-RHA-BtPore (hyperporinated). Nature of the data set: microbe, parasite or virus in culture. Format: cell-based. Particulars: Bc: Bc-RHA-BtPore vs parent.
Data set [12] deals with A. baumannii Ab-ARA (wild type, empty cassette). The data set is described as follows: microbe, parasite or virus in culture. The data set is classed as cell-based. Conditions: at least three independent measurements.
Data set [13] has as its system A. baumannii Ab-ARA-EcPore (hyperporinated). Nature of the data set: microbe, parasite or virus in culture. Format: cell-based.
Data set [14] relates to A. baumannii AbΔ3-ARA (efflux-deficient). Nature of the data set: microbe, parasite or virus in culture. The data set is classed as cell-based.
The test system of data set [15] is A. baumannii AbΔ3-ARA-EcPore (efflux-deficient, hyperporinated). Nature of the data set: microbe, parasite or virus in culture. The data set is classed as cell-based. Particulars: for MIC: AbΔ3-ARA-EcPore.

Turning to `c1ccc(Nc2cccc3ccccc23)cc1` [NPN, N-phenyl-1-naphthylamine], the “Change of intracellular accumulation of probe by inactivation of efflux” value in data set [1] and in [2] was “higher levels of NPN accumulation than in hyperporinated cells” in each case. Also, in data set [3] (PΔ3-LAC-EcPore vs PAO1-LAC), the “Probe levels in efflux-deficient hyperporinated cells vs parent” value is recorded as “only slightly higher than in PAO1-LAC cells”.

Regarding `CCOc1ccc(-c2nc3ccc(-c4nc5ccc(N6CCN(C)CC6)cc5[nH]4)cc3[nH]2)cc1` [HT, Hoechst 33342], the MIC in [4] was more than 64 µg/mL; in data set [5] (PAO1-LAC-EcPore, at least three independent measurements), 64 µg/mL (≈ 141 µM); in data set [6], 16 µg/mL (≈ 35.4 µM); in data set [7] (PaΔ3-LAC-EcPore, at least three independent measurements) it was 2 µg/mL; in data set [7] (PΔ3-LAC-EcPore) it was 2.0 µM; in data set [8] it was more than 64 µM. Also, the MIC in data set [9] was more than 64 µM; in [10] it was 1 µM (≈ 0.453 µg/mL); in [12] it was 25 µg/mL (≈ 55.2 µM); in data set [13] (Ab-ARA-EcPore, at least three independent measurements), 3.125 µg/mL (≈ 6.91 µM); in data set [14] (AbΔ3-ARA, at least three independent measurements), 0.78 µg/mL (≈ 1.72 µM); in data set [15] it was 0.025 to 0.05 µM. Also, the MIC in data set [15] (at least three independent measurements) is 0.025 µg/mL. The “Fold decrease of MIC (potentiation) by hyperporination” value was 4 to 8 fold in data set [5] (Pae: PAO1-LAC-EcPore vs parent); more than 4 fold in data set [11]; 4 to 8 fold and 8 fold in data set [13] (Abau: Ab-ARA-EcPore vs parent). In [14] (Abau: AbΔ3-ARA vs Ab-ARA), the “Fold reduction of MIC by inactivation of efflux” value was 32 fold. Moreover, in [15] (AbΔ3-ARA-EcPore vs Ab-ARA), the “Fold change of MIC by efflux inactivation plus hyperporination” value stood at 1000 fold. Also, the “Change of intracellular accumulation of probe by inactivation of efflux” value in data set [1] is on record as “up to 2 fold”; in data set [2], “up to 2 fold”; in [3] (PΔ3-LAC vs PAO1-LAC, fluorescence), “lower than those in the parent PAO1-LAC”.
